Results as given in patent US11980598B2, “N-(2-(substituted-naphth-1-yl)ethyl) substituted amide compound, preparation and uses thereof” (BEIJING GREATWAY PHARMACEUTICAL TECHNOLOGY CO., LTD., priority 2017, dated 2024).

Legend:
[1] = test system: Kunming mice; test: Tail suspension test (TST) in mice; format: in vivo, mouse; details: 10 mg/kg intraperitoneal, 3 days, last 4 of 6 min
Method: (§1) Animals: Kunming mice, male, body weight 18-22 g, SPF grade; SD rats, male, body weight 150-180 g, SPF grade. The test was carried out after acclimatization, and the animal was fasted for 12 hours before the test.
(§2) All drugs for the test were suspended and dispersed in a 1% aqueous solution of hydroxypropyl methylcellulose (HPMC), and shaken well before use. […] The doses for administration were all 10 mg/kg. For the concentration and volume for administration, see J Psychiatry Neurosci 2004; 29(2):126-133. The mice were intraperitoneally administered in a volume of 0.5 mL/20 g; and the rats were administered by i.g. in a volume of 2 mL/100 g.
Mice were randomly divided into groups according to weight balance. Intraperitoneal injection was administered for three consecutive days, once a day, and the tail suspension test were performed 30 minutes after the third day. The tail suspension box was 25×25×35 cm, and a small clip was connected with a rope at the center of the top plate. An adhesive tape was stuck to the tail of the mouse 2 cm away from the tail end, and the adhesive tape was clamped with the clip to make the mouse in an inverted position. The duration of immobility was recorded during the last 4 minutes of total 6 minutes observed.

[2] = In vitro metabolism study, human liver microsomal incubation system; format: in vitro ADME
Method: TSQ Quantum liquid chromatography-mass spectrometer (LC/MS/MS) from Finnigan Inc, USA, chromatography column: TSKgel Amide-80 column (2.0 mm I.D.×100 mm, 5 μm); mobile phase: acetonitrile-water-formic acid (50:50:0.1); flow rate: 0.2 mL/min; injection volume: 5 μL; column temperature: room temperature. Ionization source is electrospray ionization (ESI) with 4.8 KV of spray voltage; capillary temperature (TEM): 300° C.; sheath gas: N2, flow rate: 10 psi; auxiliary gas: N2, flow rate: 1 psi; collision gas (CID): Ar at a pressure of 1.5 mTorr. The mass spectrometry scanning method was selective reaction monitoring (SRM) and detected by positive ion method. The internal standard was a […] solution of aconitine in acetonitrile, the minimum limit of quantification was 5 ng/mL, and the correlation coefficient was >0.99.
Approximately 10 mg of each sample to be tested was accurately weighed, dissolved in 0.1 mL of DMSO, and serially diluted with purified water to a 10 μM, 1 μM standard stock solution. An ice bath was operated and the incubation system for detection was formulated according to Table 4. NADPH was added to the incubation system to start the reaction, and then 50 μL was immediately added to 150 μL acetonitrile as a zero-time sample and a 1 μM standard curve sample. Another 1 μM standard stock solution was added to the incubation system, and then 50 μL was immediately added to 150 μL acetonitrile as a 0.1 μM standard curve sample. […] Each sample was shaken, and centrifuged at 18000 g for 10 min. The supernatant was taken for LC/MS/MS injection and determination.

[3] = biological target: human MT2 receptor membrane protein (Homo sapiens (Human), UniProt P49286); test: MT2 receptor binding test ([3H]-Melotonin competition); details: for MT2 binding ratio (I %): prescreening, 10^−5 M
Sequence of human MT2 receptor membrane protein (P49286 whole entry): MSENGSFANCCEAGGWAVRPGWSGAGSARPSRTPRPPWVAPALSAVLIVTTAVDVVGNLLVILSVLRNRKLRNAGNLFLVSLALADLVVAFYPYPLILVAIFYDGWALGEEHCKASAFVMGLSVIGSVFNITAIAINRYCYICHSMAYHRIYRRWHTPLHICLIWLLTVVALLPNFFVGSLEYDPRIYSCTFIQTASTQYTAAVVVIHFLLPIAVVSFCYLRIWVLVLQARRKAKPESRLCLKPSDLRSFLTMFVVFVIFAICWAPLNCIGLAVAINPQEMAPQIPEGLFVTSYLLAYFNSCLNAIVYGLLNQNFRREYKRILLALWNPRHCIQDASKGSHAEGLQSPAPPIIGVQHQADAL
Method: (§3) The receptors included a MT1/MT2 receptor and a 5-HT2C receptor. The test was divided into two parts: prescreening and rescreening. The results of prescreening were expressed as the percentage of binding, and the results of rescreening were expressed as the IC50 value (in M, i.e., mol/L).
(§4) (3) Tris-HCl buffer formulation: 50 mM Tris-HCl Buffer, 1 mM EDTA, 5 mM MgCl2, 0.1% NaN3, and then a certain proportion of PMSF was added to make pH 7.4.
(§5) (4) The example compound to be tested was dissolved in DMSO and formulated as a stock solution of 10^−2 M, and then diluted with distilled water to a concentration gradient of […]. The prescreening of the MT receptor binding test was performed at the concentration of 10^−5 M; the prescreening of the 5-HT2C receptor binding test was performed at the concentrations of 10^−5 and 10^−7 M.
(§6) The statistical analysis was performed using GraphPad Prism 5.0 software. The formula for receptor binding test was: inhibition (%)=[(total CPM of binding−CPM of tube with drug)/(total CPM of binding−non-specific CPM)]×100%, wherein CPM was count of a radioactive intensity.
(§7) 10 μL of receptor membrane protein MT1 or MT2 was added to all the tubes. In non-specific binding tubes, 50 μL of a corresponding unlabeled ligand Ago at a concentration of 10^4 M was added to a final concentration of 10 μM, and pre-reacted for 30 minutes. In test tubes, 30 μL of test drug (MT1: a concentration of 10^4-10^−10 M, MT2: a concentration of […]) was added, respectively; all tubes were added with 40 μL [^3H]-Melotonin, respectively. […] The filter paper was taken out and dried by baking, and then placed in a scintillation bottle. 1 mL of the scintillation liquid was added, and the radioactive intensity was measured by a liquid scintillation counter.

[4] = biological target: human MT1 receptor membrane protein (Homo sapiens (Human), UniProt P48039); test: MT1 receptor binding test ([3H]-Melotonin competition); details: for MT1 binding ratio (I %): prescreening, 10^−5 M
Sequence of human MT1 receptor membrane protein (P48039 whole entry): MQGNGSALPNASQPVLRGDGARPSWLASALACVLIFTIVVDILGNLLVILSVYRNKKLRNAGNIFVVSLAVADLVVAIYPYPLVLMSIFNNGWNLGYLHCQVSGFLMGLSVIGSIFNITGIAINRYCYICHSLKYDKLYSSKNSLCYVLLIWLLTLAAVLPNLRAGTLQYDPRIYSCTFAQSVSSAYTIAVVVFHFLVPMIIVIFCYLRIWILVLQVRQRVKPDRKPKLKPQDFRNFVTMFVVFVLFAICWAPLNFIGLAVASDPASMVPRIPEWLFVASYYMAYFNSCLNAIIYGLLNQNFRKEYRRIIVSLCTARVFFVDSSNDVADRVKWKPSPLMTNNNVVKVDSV
Method: as §3, §4, §5, §6, §7

[5] = test system: Kunming mice; test: Forced mouse swimming test; format: in vivo; details: 10 mg/kg intraperitoneal, 3 days, last 4 of 6 min
Method: as §1, §2
Animal grouping and administration method were the same as those in the tail suspension test in mice. The mice were placed in a round glass vessel with a height of 20 cm, an inner diameter of 12 cm, a water depth of 10 cm and a water temperature of 25° C.

[6] = test system: SD rats; test: Forced rat swimming test; format: in vivo; details: 10 mg/kg i.g., 3 days, last 5 of 6 min
Method: as §1, §2
Rats were randomly divided into groups according to weight balance. Rats were administered by i.g. for three consecutive days, once a day. One hour after administration on the third day, the forced swimming test was performed. The rats were placed in a round glass jar with a height of 40 cm, an inner diameter of 18 cm, a water depth of 23 cm, and a water temperature of 25° C. The rats were allowed to swim for 6 minutes, and the accumulated immobility time in the last 5 minutes was recorded.

[7] = incubation time 0 min, 1 μM, 1 mg/mL microsome, 37° C.

Row | Concentration measured at incubation time point [2, 7] | Concentration measured at incubation time point ([2]; incubation time 5 min) | Concentration measured at incubation time point ([2]; incubation time 15 min) | MT2 binding ratio (I %) [3] | MT1 binding ratio (I %) [4] | melting point | Concentration measured at incubation time point ([2]; incubation time 30 min) | IC50 ([3]; rescreening) | IC50 ([4]; rescreening) | SMILES | Immobility time [1] | Immobility time [5] | Immobility time [6]
1 | 1.000 ± 0.036 µM | 0.420 ± 0.079 µM | 0.039 ± 0.003 µM | 78% | 84% |  |  |  |  | COc1cc2c(CCNC(C)=O)cccc2cc1Cl [Example 2, N-(2-(6-chloro-7-methoxy-naphthalen-1-yl)ethyl)acetamide] | 69.4 ± 23.3 s | 81.3 ± 20.3 s | 61.3 ± 29.8 s
2 | 1.000 ± 0.041 µM | 0.395 ± 0.047 µM | 0.029 ± 0.002 µM | 57% | 66% | 141 to 144 °C |  |  |  | [2H]C([2H])([2H])Oc1cc2c(CCNC(C)=O)cccc2cc1F [Example 3, N-(2-(6-fluoro-7-deuteromethoxy-naphthalen-1-yl)ethyl)acetamide] | 77.7 ± 28.6 s | 83.3 ± 30.7 s | 76.1 ± 30.2 s
3 | 1.001 ± 0.017 µM | 0.601 ± 0.009 µM | 0.048 ± 0.003 µM | 84% | 77% | 140 to 144 °C | 0.011 ± 0.002 µM | 0.67 ± 0.08 nM | 0.23 ± 0.24 nM | COc1cc2c(CCNC(C)=O)cccc2cc1F [Example 4, N-(2-(6-fluoro-7-methoxy-naphthalen-1-yl)ethyl)acetamide] | 76.6 ± 18.4 s | 75.6 ± 26.7 s | 71.4 ± 40.3 s
4 | 1.000 ± 0.032 µM | 0.675 ± 0.044 µM | 0.116 ± 0.010 µM | 44% | 81% |  |  |  |  | [2H]C([2H])([2H])Oc1cc2c(CCNC(=O)CC)cccc2cc1Cl [Example 5, N-(2-(6-chloro-7-deuteromethoxy-naphthalen-1-yl)ethyl)propanamide] | 68.8 ± 17.3 s | 96.4 ± 14.4 s | 66.2 ± 35.1 s
5 | 1.000 ± 0.042 µM | 0.471 ± 0.051 µM | 0.056 ± 0.005 µM | 36% | 77% |  |  |  |  | CCC(=O)NCCc1cccc2cc(Cl)c(OC)cc12 [Example 6, N-(2-(6-chloro-7-methoxy-naphthalen-1-yl)ethyl)propanamide] |  |  | 
6 | 1.000 ± 0.035 µM | 0.505 ± 0.033 µM | 0.065 ± 0.007 µM | 69% | 73% |  |  |  |  | CCC(=O)NCCc1cccc2cc(F)c(OC)cc12 [Example 7, N-(2-(6-fluoro-7-methoxy-naphthalen-1-yl)ethyl)propanamide] |  |  | 
7 | 0.999 ± 0.103 µM | 0.235 ± 0.022 µM | 0.004 ± 0.003 µM |  |  |  |  |  |  | [2H]C([2H])([2H])Oc1ccc2cccc(CCNC(C)=O)c2c1 [d3-Ago, d3-Agomelatine, reference compound] |  |  | 
